{"source": "patent US20250215071A1", "about": "“Novel Mcl-1 inhibitor and combination of Mcl-1 and a BH3 mimetic, such as a Bcl-2 inhibitor” (NETRIS PHARMA, priority 2022, published 2025)", "test_system": "HeLa UNC5B cells", "assay": "UNC5B-induced DNA fragmentation in HeLa UNC5B cells", "format": "cell-based, Human", "conditions": "doxycycline-induced UNC5B; 18 hours", "method": "FIG. 2. CRISPR-Cas9 screening identifies genes and molecular pathways involved in UNC5B-induced cell death. Related to FIG. 1. (A): UNC5B induction upon treatment with doxycycline. Stable HCT116 cells, inducible for UNC5B, were treated with the indicated concentrations of doxycycline (Dox). 24 hours later, protein levels of FLAG-UNC5B and GAPDH, used as housekeeping gene, were assessed by western blot. (B): UNC5B induction upon treatment with doxycycline on Hela cells. Stable Hela cells inducible for UNC5B (HeLa UNC5B) were treated with the indicated doses of Dox for 18 hours. Protein levels of His-UNC5B and β-actin, used as housekeeping gene, were measured by western blot. (C,D,E): Induction of UNC5B triggers apoptotic cell death in HCT116 cells. Stable HCTT16 cells inducible for human UNC5B were treated with Dox. To assess cell death, propidium iodide (PI) incorporation was followed in real-time up to 36 hours, using an Incucyte Zoom technology (n=3, ** p<0.01, Kolmogorov Smirnov test) (C). Apoptosis was assessed 18 hours after Dox treatment by DNA fragmentation through flow cytometry ([…] (D) and by caspase-3 activity (E), quantified by fluorometric detection kit (n=3, *p<0.05, ** p<0.01, *** p<0.001, Ordinary two-way ANOVA). Values are given as means±SEM. (F): Caspase inhibition rescues apoptosis triggered by UNC5B. HeLa UNC5B cells were treated with Dox and the pan-caspase inhibitor […] (QVD). 18 hours later, DNA fragmentation was evaluated by flow cytometry (n=3, **** p<0.0001, ordinary two-way ANOVA with Šidák's multiple comparisons test). Values are given as means±SEM. […] The number of guides showing an increase in reads compared to control condition is shown for each gene.\nFIG. 4. […] 18 hours after treatment, apoptosis was measured by DNA fragmentation (A) and caspase-3 activity (B) (n=3-4, **** p<0.0001, ordinary two-way ANOVA with Tukey's multiple comparisons test). […] Protein levels of Mcl-1, Bcl-2 and Bcl-XL, as well as of UNC5B and B-actin, used as housekeeping gene, were evaluated by western blot. […]"}
{"smiles": "CC(C)C[C@H](NC(=O)[C@H](Cc1ccccc1)NC(=O)c1cnccn1)B(O)O", "note": "[bortezomib]", "values": [{"measurement": "UNC5B-induced apoptosis (DNA fragmentation)", "value": "suppressed"}]}
